Assay results taken from ChEMBL document CHEMBL1201862, “PubChem BioAssay data set” (2004).
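Following 48 hours of exposure in 96-well plates, responses at five concentrations were used to interpolate endpoints linearly. GI50 = concentration required for 50% inhibition of growth.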 Activity calls are given as the source filed them. Cut-off read from the data, not from the text of the source: active = GI50 up to about 1.1 µM and inactive = higher.

How the values were obtained:
Experiment in all cases: NCI-60 cell line screen, 48 h
XF498 = tested on: XF498
KM-20L2 = tested on: KM-20L2
HOP-18 = tested on: HOP-18
DLD-1 = tested on: DLD-1
RXF 631 = tested on: RXF 631
DMS-114 = tested on: DMS-114
SNB-78 = tested on: SNB-78
DMS-273 = tested on: DMS-273
BT-549 = tested on: BT-549

Row | Structure (SMILES) | GI50 (XF498) | GI50 (KM-20L2) | GI50 (HOP-18) | GI50 (DLD-1) | GI50 (RXF 631) | GI50 (DMS-114) | GI50 (SNB-78) | GI50 (DMS-273) | GI50 (BT-549)
1 | CC(C)C1CC[C@@H](C)C[C@@]1(O)CC(N)=O (stereo not given in full) | 0.0344 µM (active) | > 100 µM (inactive) | > 100 µM (inactive) | > 100 µM (inactive) | > 100 µM (inactive) | > 100 µM (inactive) | > 100 µM (inactive) | > 100 µM (inactive) | 
2 | O=C(CC(=O)N1N=C(n2ccc3ccccc32)CC1c1ccccc1)Nc1ccccc1Cl (stereo not given) |  | > 100 µM (inactive) | > 100 µM (inactive) |  | > 100 µM (inactive) | > 100 µM (inactive) | > 100 µM (inactive) | > 100 µM (inactive) | 
3 | COC1=CC(=O)c2c(O)c3c(c(O)c2C1=O)C[C@](C)(O)C[C@@H]3O | 2.86 µM (inactive) | > 100 µM (inactive) |  | 1.31 µM (inactive) | 1.95 µM (inactive) | 1.46 µM (inactive) | 3.85 µM (inactive) | 1.57 µM (inactive) | 7.76 µM (inactive)
4 | COc1cc(C(=O)C(CO)Oc2ccccc2OC)ccc1O (stereo not given) |  | > 100 µM (inactive) | > 100 µM (inactive) | > 100 µM (inactive) | > 100 µM (inactive) | > 100 µM (inactive) | > 100 µM (inactive) | > 100 µM (inactive) | 
5 | COC(=O)C1CC2c3c(c4ccccc4n3C)CC(C1=O)N2C (stereo not given) |  | 39.8 µM (inactive) | 40 µM (inactive) | 40.9 µM (inactive) | 63.4 µM (inactive) | 21.2 µM (inactive) | 47 µM (inactive) | 20.2 µM (inactive) | 
6 | Cc1ccccc1-n1c(N)c(-c2nc3ccccc3[nH]2)sc1=S |  |  | 30.2 µM (inactive) | 27.3 µM (inactive) | 24.9 µM (inactive) | 24.2 µM (inactive) | 32.4 µM (inactive) | 18.9 µM (inactive) | 
7 | CN1CCCCC(C(O)(c2ccccc2)c2ccccc2)C1=O (stereo not given) | > 100 µM (inactive) | > 100 µM (inactive) | > 100 µM (inactive) | 39.4 µM (inactive) | 42.4 µM (inactive) | 86.1 µM (inactive) | > 100 µM (inactive) | 44.1 µM (inactive) | 
